Experiment [1] addresses Human immunodeficiency virus type 1 protease (Human immunodeficiency virus 1, UniProt Q72874). Nature of the experiment: Inhibitory activity against HIV-1 protease.
Experiment [2] has as its target Human immunodeficiency virus type 1 protease (Human immunodeficiency virus 1) (UniProt Q72874). Nature of the experiment: Compound was tested for inhibition of HIV-1 protease (taken from ZhangPoorman plot).
Experiment [3] shares this target. As to the kind of experiment: Compound was tested for inhibition of HIV-1 protease by a dissociative mechanism.

The record followed here is ChEMBL document CHEMBL1133955, “Design and synthesis of new inhibitors of HIV-1 protease dimerization with conformationally constrained templates” (Bioorg Med Chem Lett, 2001).

As a reminder, the IC50 is the concentration needed to halve the response being measured. Low readings indicate greater potency in that assay, high ones weaker potency in that assay.

Molecules are shown by their SMILES.

Consider `COc1ccc(NC(=O)C(=O)O)cc1C(=O)NNC(=O)OCC1c2ccccc2-c2ccccc21`, for which, in experiment [1], the IC50 came out at 30 µM. In experiment [2], this molecule returned a Kid of 9.1 µM.

In the case of `CC[C@@H](C)[C@H](NC(=O)[C@@H](NC(=O)[C@H](CC(C)C)NC(=O)[C@@H](N)Cc1c[nH]c2ccccc12)[C@H](C)O)C(=O)NCCc1cccc2c1oc1c(CCC(=O)N[C@H](C(=O)N[C@@H](Cc3ccc(O)cc3)C(=O)N[C@@H](CC(N)=O)C(=O)N[C@@H](Cc3ccccc3)C(=O)O)[C@H](C)O)cccc12`, the IC50 in experiment [1] came out at 12 µM. The molecule also returned a Kid in experiment [3] of 5.4 µM.
